The test system of the test is K24384-001-R-PDC complex spheroids, viability. Put plainly: Anticancer human tumor K24384-001-R-PDC patient-derived pancreatic adenocarcinoma cell line growth inhibition [GQUAD]. The note with it: for viability, T/C: stronger effect = lower value; for pIC50: curve of compound. From the text: DNA G-quadruplex Stabilizer Agents in Combinations in Complex Spheroids
A high-throughput screen of multi-cell type tumor spheroids was designed to identify active combinations of DNA G-quadruplex stabilizer agents and targeted small molecules. Complex spheroids include a stromal component modeled by human endothelial cells (HUVEC) and fibroblasts modeled by human mesenchymal stem cells (MSCs). The concentration ranges selected for each drug and investigational agent were based upon clinically achievable concentrations if the clinical Cmax of the agent was known.
Compounds. The drugs and investigational agents: pidnarulex (CX-5461; NSC782164), APTO-253 (NSC789042), BRACO-19 (NSC847499), peposertib (NSC802822), ceralasertib (NSC780249), elimusertib (NSC800525), camonsertib (NSC841442), AZD-1390 (NSC803789), olaparib (NSC753686), talazoparib (NSC767125), ART-558 (NSC835418), sotorasib (NSC818433), MRTX-1133 (NSC836407), SN-38 (NSC673596), topotecan (NSC609699), etoposide (NSC141540), doxorubicin (NSC123127), gemcitabine (NSC613327), 5-fluorouracil (NSC19893), paclitaxel (NSC125973), vemurafenib (NSC761431), panobinostat (NSC761190), R-306465 (JNJ-16241199; NSC773264), adavosertib (NSC754352), TP-3654 (NSC805149), carboplatin (NSC241240), KSQ-4279 (NSC840948), and staurosporine (NSC755774) were obtained from the National Cancer Institute (NCI) Developmental Therapeutics Program Chemical Repository (34). The FDA-approved anticancer drug set is available from the NCI Developmental Therapeutics Program. […] The stock solutions were prepared in dimethyl sulfoxide (DMSO, Sigma-Aldrich, St. Louis, MO, cat. D2650) at 800-fold the tested concentration and stored at -70 degrees C prior to their use. All drugs and investigational agents were tested over a range starting from a high concentration at or near the clinical Cmax and decreasing in half-log increments. If the clinical Cmax for an agent had not been determined, the highest concentration tested was 10 microM.
2.3 Cell Culture. All cells were maintained in an incubator at 37 degrees C and 5% CO2 with 95% humidity. The PDC lines were cultured according to standard operating procedures established by the NCI PDMR. All PDCs were thawed and cultured in Matrigel-coated flasks prepared with a working solution of 1X Ham's F-12 nutrient mix, without supplementation (Invitrogen, cat. 11765054), 100 U/mL penicillin-streptomycin (Invitrogen, cat. 15140122), and 2.5% Matrigel (Corning Inc., cat. 354248) for the first three passages. The 857933-349-R-J2-PDC line was cultured in 6C/Colon 1B media, which includes advanced DMEM/F-12 (Thermo Fisher Scientific, cat. 12634028), 10 mM HEPES (Thermo Fisher Scientific, cat. 15630080), 1X GlutaMAX supplement (Thermo Fisher Scientific, cat. 35050061), 0.1 mg/mL primocin (InvivoGen, cat. ant-pm-2), 10% defined fetal bovine serum, heat inactivated (HyClone Laboratories Inc., cat. SH30070.03HI), 50% L-WRN conditioned media (ATCC, cat. CRL-3276), 1.25 mM N-Acetyl-L-cysteine (Sigma-Aldrich, cat. A9165), 10 mM nicotinamide (Sigma-Aldrich, cat. N0636), 1X B-27 supplement (Thermo Fisher Scientific, cat. 17504044), 1X N-2 supplement (Thermo Fisher Scientific, cat. 17502048), 10 microM Y-27632 dihydrochloride (Tocris Bioscience, cat. 1254), and 50 ng/mL human EGF recombinant protein (Thermo Fisher Scientific, cat. PHG0311). The 485176-168-R4-J1-PDC line was cultured in Panc media, which includes all 6C/Colon 1B media components plus 100 ng/mL human FGF-10 (Thermo Fisher Scientific, cat. 100-26), 500 nM SB-431542 (Selleckchem, cat. S1067), and gastrin (Tocris, cat. 3006).
[…]

The results in this text go back to PubChem BioAssay AID2060483 (Molecular Pharmacology Branch, DTP, NCI, 2025).

Structures are written as SMILES. pIC50: −log10 of the molar value. Where “and” joins values, the source holds several entries; their conditions need not be identical. Equal entries are not always repeated.
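Also: spheroids exposed to compounds for seven days.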

Consider `COc1cccc2c1C(=O)c1c(O)c3c(c(O)c1C2=O)CC(O)(C(=O)CO)CC3OC1CC(N)C(O)C(C)O1` (stereo not drawn), for which the pIC50 (commonly the IC50 on a negative log10 scale, so that one unit is a factor of ten) was 6.70 and 6.84 and 6.79. For the same compound, the viability, T/C – broadly, the result in the treated group divided by that in the control group, in per cent – (compound 0.0316 µM) was 96.8% and 80.5% and 92.1%. Besides, under “compound 0.1 µM”, the viability, T/C is 67.9% and 52.2% and 54.5%. Moreover, the viability, T/C (compound 0.316 µM) is 38.1% and 41.2% and 43.5%. Further, the viability, T/C (compound 1 µM) was 19.5% and 22.3% and 19.1%. The viability, T/C (compound 3.16 µM) was 7.67% and 6.06% and 6.27%. Moreover, the viability, T/C (compound 10 µM) is 4.91% and 3.92% and 4.93%.

In the case of `COc1ncnc(C2CC2)c1-c1ncc2cnn(Cc3ccc(-c4nc(C(F)(F)F)cn4C(C)C)cc3)c2n1`, the negative logarithm of the IC50 (pIC50) was under 5.00. In addition, the viability, T/C (compound 0.0316 µM) was 90.9% and 94.8% and 89.7%. The viability, T/C (compound 0.1 µM) is 101% and 104% and 81.5%. For the same compound, the viability, T/C (compound 0.316 µM) is 100% and 102% and 101%. Under “compound 1 µM”, the viability, T/C was 75.5% and 96.3% and 84.7%. For the same compound, under “compound 3.16 µM”, the viability, T/C is 109% and 103% and 87.2%. Besides, the viability, T/C (compound 10 µM) was 96.1% and 110% and 99.2%.

Regarding `Cc1cccc(N(C)C(=O)C2C(O)CCN2c2nc(C)cc(C(F)(F)F)c2C#N)c1` (stereo not drawn), the negative-log IC50 (pIC50) was under 5.00. Besides, the viability, T/C (compound 0.0316 µM) was 111% and 106% and 99%. Besides, under “compound 0.1 µM”, the viability, T/C is 106% and 98% and 82%. Moreover, where the note is “compound 0.316 µM”, the viability, T/C was 122% and 102% and 99.9%. In addition, the viability, T/C (compound 1 µM) was 91.4% and 86.8% and 108%. The viability, T/C (compound 3.16 µM) was 115% and 88% and 114%. Besides, under “compound 10 µM”, the viability, T/C was 115% and 106% and 127%.

Take `Nc1ccn(C2OC(CO)C(O)C2(F)F)c(=O)n1` (stereo not drawn): the pIC50 was 6.55 and 6.97 and 6.27. Also, the viability, T/C (compound 0.0316 µM) was 84.3% and 75.7% and 81.2%. Further, the viability, T/C (compound 0.1 µM) is 63.9% and 51.3% and 63.6%. In addition, the viability, T/C (compound 0.316 µM) is 50% and 35.2% and 65.7%. For the same compound, the viability, T/C (compound 1 µM) was 34.6% and 28.7% and 32.3%. In addition, the viability, T/C (compound 3.16 µM) is 21.7% and 26.4% and 21.4%. In addition, the viability, T/C (compound 10 µM) was 15.8% and 21.2% and 19.7%.

As to `O=C(NO)c1cnc(N2CCN(S(=O)(=O)c3ccc4ccccc4c3)CC2)nc1`, the pIC50 was 6.37 and 6.24 and 6.38. Moreover, under “compound 0.0316 µM”, the viability, T/C was 110% and 91.7% and 116%. Under “compound 0.1 µM”, the viability, T/C was 81% and 99.9% and 83.9%. The viability, T/C (compound 0.316 µM) is 66.6% and 72.7% and 68.1%. The viability, T/C (compound 3.16 µM) is 0.26% and 0.27% and 0.09%. Also, where the note is “compound 10 µM”, the viability, T/C was 0.25% and 0.26% and 0.14%.

`O=C(c1cc(Cc2n[nH]c(=O)c3ccccc23)ccc1F)N1CCN(C(=O)C2CC2)CC1`: the negative logarithm of the IC50 (pIC50) was under 5.00. Besides, where the note is “compound 0.0316 µM”, the viability, T/C is 104% and 98.6% and 94.7%. Moreover, the viability, T/C (compound 0.1 µM) is 93.9% and 91.4% and 99.2%. Moreover, for the setting “compound 0.316 µM”, the viability, T/C was 113% and 98.2% and 86.2%. The viability, T/C (compound 1 µM) is 93.1% and 97.6% and 91%. Further, the viability, T/C (compound 3.16 µM) is 101% and 72.5% and 91.1%. For the same compound, the viability, T/C (compound 10 µM) was 79.3% and 69.8% and 82.3%.

Consider `O=c1[nH]cc(F)c(=O)[nH]1`, for which the negative logarithm of the IC50 (pIC50) is 5.79 and < 5.00 and 5.82. Moreover, under “compound 0.0316 µM”, the viability, T/C is 101% and 113% and 79.9%. For the setting “compound 0.1 µM”, the viability, T/C was 71.8% and 95.1% and 98.7%. Further, the viability, T/C (compound 0.316 µM) is 89.6% and 94.3% and 82.2%. In addition, the viability, T/C (compound 1 µM) was 54.9% and 55.5% and 54.3%. Also, under “compound 3.16 µM”, the viability, T/C is 41.3% and 45.8% and 44.6%. The viability, T/C (compound 10 µM) was 45.5% and 56.4% and 37.8%.
